In assay [1] the target is CB2 receptor (Homo sapiens, UniProt P34972). The note with it: cited from earlier work.
Assay [2] concerns the target T1, CB2 receptor (Mus musculus, UniProt P47936).
T1 construct: expressed in transfected cells; host or cells: DBT mouse astrocytoma cells, 2D4 clone; wild-type DBT cells lack CB2
In words: Fluorescence imaging of live DBT cells (2D4 CB2-expressing clone and wild type) and competition study. It is filed as cell-based. To be noted: 5 μM, control for non-specific binding due to the dye (FIG. 2). From the text:
To test whether NIRmbc94 reliably binds to the CB2 receptor, we already had in place a system wherein the receptor was both absent and present.

Sequence of CB2 receptor (Homo sapiens, UniProt P34972) (P34972 whole entry): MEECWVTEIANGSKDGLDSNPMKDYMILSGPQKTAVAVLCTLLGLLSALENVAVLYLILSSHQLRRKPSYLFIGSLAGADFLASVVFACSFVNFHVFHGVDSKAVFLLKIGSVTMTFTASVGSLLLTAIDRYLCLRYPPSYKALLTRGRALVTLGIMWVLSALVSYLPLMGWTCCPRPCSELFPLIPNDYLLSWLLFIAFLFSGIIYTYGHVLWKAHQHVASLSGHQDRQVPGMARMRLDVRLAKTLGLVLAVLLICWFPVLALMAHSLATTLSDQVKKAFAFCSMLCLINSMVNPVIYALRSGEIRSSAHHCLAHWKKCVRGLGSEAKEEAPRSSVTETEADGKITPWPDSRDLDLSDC
T1 sequence (P47936 whole entry): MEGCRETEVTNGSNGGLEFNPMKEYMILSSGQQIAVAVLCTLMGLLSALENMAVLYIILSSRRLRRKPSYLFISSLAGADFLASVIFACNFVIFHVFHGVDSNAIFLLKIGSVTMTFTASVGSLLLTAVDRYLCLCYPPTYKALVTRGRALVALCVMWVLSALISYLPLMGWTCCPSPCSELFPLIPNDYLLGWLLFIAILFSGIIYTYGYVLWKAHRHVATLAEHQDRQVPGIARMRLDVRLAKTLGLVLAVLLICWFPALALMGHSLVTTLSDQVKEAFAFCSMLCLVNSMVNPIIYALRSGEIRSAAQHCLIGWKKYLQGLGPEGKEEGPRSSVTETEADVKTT

Regarding `COc1ccc(C(=O)c2c(C)n(CCN3CCOCC3)c3cc(I)ccc23)cc1` [AM630], the CB2/CB1 affinity ratio in assay [1] is 165.

As to `CC1(C)C(=CC=C2CCCC(C=CC3=[N+](CCCCCC(=O)[O-])c4ccc(S(=O)(=O)[O-])cc4C3(C)C)=C2Oc2ccc(S(=O)(=O)[O-])cc2)N(CCCCS(=O)(=O)[O-])c2ccc(S(=O)(=O)[O-])cc21.[Na+].[Na+].[Na+].[Na+]` [IRDye™ 800CW acid], the “fluorescence of cells dosed with free dye” value in assay [2] is on record as “does not produce significant fluorescence”.

In the case of SR144528, the CB2/CB1 affinity ratio in assay [1] was > 700.

The values are drawn from patent US8367714B2, “Cannabinoid receptor targeted agent” (Vanderbilt University, priority 2007, dated 2013).
